Source: US20110105397A1, “METHOD FOR TREATING HEART FAILURE WITH STRESSCOPIN-LIKE PEPTIDES” (priority 2009, published 2011)
Where two headings read alike, the source gives them in different places.

How the values were obtained:
[1] = Human pharmacokinetics, healthy subjects, 24- or 72-hour infusion of 54 ng/kg/min; conditions: in vivo; for Vd: Vss; for Tmax: median
Description: In healthy subjects following a 24- or 72-hour infusion of 54 ng/kg/min of h-SCP (SEQ ID NO:1) noncompartmental pharmacokinetic analyses were performed on plasma concentrations of h-SCP (SEQ ID NO:1).

healthy subjects = assay: Human hemodynamics, healthy subjects, 24- and 72-hour continuous IV infusion, 54 ng/kg/min; type: in vivo
Description: (§1) Efficacy was based on the pharmacodynamic evaluation of hemodynamics, which was monitored using the noninvasive technique of impedance cardiography. Heart rate values were collected by impedance cardiography measurements. It was noted that the heart rate of subjects receiving placebo were elevated on the day of their infusions, at baseline before the infusion, and for the first 3 to 4 hours after the infusions were started (FIG. 17). Based on this observation, it appeared that there was a potential effect of period on the observed heart rate.
Healthy subjects who received placebo had heart rates that decreased compared with baseline during the infusion.

[2] = test system: subjects with heart failure; assay: Human hemodynamics (impedance cardiography), subjects with stable heart failure, 7.5-hour ascending dose IV infusion; type: in vivo; conditions: for Heart Rate CFB / Heart Rate Percent CFB: placebo-subtracted; for Cardiac Index CFB / Cardiac Index Percent CFB / Cardiac Output CFB / Cardiac Output Percent CFB / Diastolic Blood Pressure CFB / Diastolic Blood Pressure Percent CFB / Stroke Volume CFB / Stroke Volume Percent CFB / Systolic Blood Pressure CFB / Systolic Blood Pressure Percent CFB: post hoc analysis
Description: as §1
A post hoc graphical analysis of the hemodynamic data was done to adjust for the elevated baseline values seen just before onset of the infusion, to obtain the best estimate of each hemodynamic parameter, and to correct for the effect of period. A post hoc graphic presentation was prepared from the complete (high frequency) dataset. This dataset contains the raw data that were further processed by the vendor (ie, CardioDynamics) and reported only at specific time points.
In this post hoc analysis an extended baseline was used for each value that included all values recorded before initiation of the infusion. Then an average value for each parameter was obtained from the last 30 minutes of each 2.5 hour infusion and was used as the effect in that period of the infused dose. Each value was modified for the effect of period of infusion by subtracting the mean change from baseline seen in placebo subjects dosed in that same period (placebo subtraction). The dose effect was estimated by averaging the values from all subjects who received the same dose after the placebo subtraction.
As may have occurred in healthy subjects, subjects with stable heart failure may have experienced anxiety before the start of the infusion that contributed to this increase in baseline heart rate values.

[3] = male, 54 ng/kg, healthy subjects, 54 ng/kg/min, 24 Hours Male, mean, N = 7
[4] = male, 54 ng/kg, healthy subjects, 54 ng/kg/min, 72 Hours Male, mean, N = 7

H-TKFTLSLDVPTNIMNLLFNIAKAKNLRAQAAANAHLMAQI-NH2 [SEQ ID NO: 1, TKFTLSLDVPTNIMNLLFNIAKAKNLRAQAAANAHLMAQI-NH2]
half-life ([1]; female, 54 ng/kg, T1/2): 23.4 h
half-life ([1]; female, 54 ng/kg, T1/2, effective): 5.84 h
Vd ([1]; female, 54 ng/kg): 2.72 L/kg
AUC(0-inf) ([1]; female, 54 ng/kg, healthy subjects, 54 ng/kg/min, 72 Hours Female, mean, N = 5): 740 ng·h/mL
Cmax ([1]; female, 54 ng/kg, healthy subjects, 54 ng/kg/min, 72 Hours Female, mean, N = 6): 11.5 ng/mL
clearance ([1]; female, 54 ng/kg, healthy subjects, 54 ng/kg/min, 72 Hours Female, mean, N = 6, read-out: CL (converted)): 5.5 mL/min/kg
Tmax ([1]; female, 54 ng/kg, healthy subjects, 54 ng/kg/min, 72 Hours Female, N = 6): 18 h
half-life ([1]; 54 ng/kg/min, healthy subjects, 24- or 72-hour infusion of 54 ng/kg/min, read-out: Mean terminal half-life): 23.4 to 28.8 h
half-life ([1]; 54 ng/kg/min, healthy subjects, 24- or 72-hour infusion of 54 ng/kg/min, read-out: effective half-life): 5.84 to 9.62 h
clearance ([1]; 54 ng/kg/min, healthy subjects, 24- or 72-hour infusion of 54 ng/kg/min, read-out: mean clearance): 4.67 to 6.33 mL/min/kg
T1/2 ([1]; male, 54 ng/kg): 28.81 h
T1/2, effective ([1]; male, 54 ng/kg): 9.62 h
Vss ([1]; male, 54 ng/kg): 4.94 L/kg
half-life ([1]; male, 54 ng/kg, T1/2): 25.7 h
half-life ([1]; male, 54 ng/kg, T1/2, effective): 9.37 h
Vd ([1]; male, 54 ng/kg): 3.7 L/kg
AUC(0-inf) [1, 3]: 283 ng·h/mL
Cmax [1, 3]: 12.2 ng/mL
clearance ([1]; male, 54 ng/kg, healthy subjects, 54 ng/kg/min, 24 Hours Male, mean, N = 7, read-out: CL (converted)): 4.67 mL/min/kg
Tmax ([1]; male, 54 ng/kg, healthy subjects, 54 ng/kg/min, 24 Hours Male, N = 7): 16 h
AUC(0-inf) [1, 4]: 632 ng·h/mL
Cmax [1, 4]: 10.2 ng/mL
clearance ([1]; male, 54 ng/kg, healthy subjects, 54 ng/kg/min, 72 Hours Male, mean, N = 7, read-out: CL (converted)): 6.33 mL/min/kg
Tmax ([1]; male, 54 ng/kg, healthy subjects, 54 ng/kg/min, 72 Hours Male, N = 7): 24 h
time in which the increase in heart rate occurred (healthy subjects): ≤ 15 min
increase in heart rate ([2]; highest dose of 54 ng/kg/min): ~10 bpm
Heart Rate CFB ([2]; infusion rate 0.3 ng/kg/min): 1.5 bpm
Heart Rate Percent CFB ([2]; infusion rate 0.3 ng/kg/min): 3.0%
Cardiac Index CFB ([2]; infusion rate 0.3 ng/kg/min): 0.3 L/min/m^2
Cardiac Index Percent CFB ([2]; infusion rate 0.3 ng/kg/min): 13.9%
Cardiac Output CFB ([2]; infusion rate 0.3 ng/kg/min): 0.7 L/min
Cardiac Output Percent CFB ([2]; infusion rate 0.3 ng/kg/min): 14.2%
Diastolic Blood Pressure CFB ([2]; infusion rate 0.3 ng/kg/min): −8.6 mm Hg
Diastolic Blood Pressure Percent CFB ([2]; infusion rate 0.3 ng/kg/min): −12.6%
Stroke Volume CFB ([2]; infusion rate 0.3 ng/kg/min): 7.6 mL
Stroke Volume Percent CFB ([2]; infusion rate 0.3 ng/kg/min): 9.5%
Systolic Blood Pressure CFB ([2]; infusion rate 0.3 ng/kg/min): −18.2 mm Hg
Systolic Blood Pressure Percent CFB ([2]; infusion rate 0.3 ng/kg/min): −15.8%
Heart Rate CFB ([2]; infusion rate 1 ng/kg/min): −0.4 bpm
Heart Rate Percent CFB ([2]; infusion rate 1 ng/kg/min): 0.2%
Cardiac Index CFB ([2]; infusion rate 1 ng/kg/min): 0.2 L/min/m^2
Cardiac Index Percent CFB ([2]; infusion rate 1 ng/kg/min): 10.1%
Cardiac Output CFB ([2]; infusion rate 1 ng/kg/min): 0.5 L/min
Cardiac Output Percent CFB ([2]; infusion rate 1 ng/kg/min): 10.2%
Diastolic Blood Pressure CFB ([2]; infusion rate 1 ng/kg/min): −6.1 mm Hg
Diastolic Blood Pressure Percent CFB ([2]; infusion rate 1 ng/kg/min): −9.1%
Stroke Volume CFB ([2]; infusion rate 1 ng/kg/min): 6.6 mL
Stroke Volume Percent CFB ([2]; infusion rate 1 ng/kg/min): 9.1%
Systolic Blood Pressure CFB ([2]; infusion rate 1 ng/kg/min): −4.9 mm Hg
Systolic Blood Pressure Percent CFB ([2]; infusion rate 1 ng/kg/min): −4.7%
Heart Rate CFB ([2]; infusion rate 3 ng/kg/min): −1.3 bpm
Heart Rate Percent CFB ([2]; infusion rate 3 ng/kg/min): −0.9%
Cardiac Index CFB ([2]; infusion rate 3 ng/kg/min): 0.1 L/min/m^2
Cardiac Index Percent CFB ([2]; infusion rate 3 ng/kg/min): 6.9%
Cardiac Output CFB ([2]; infusion rate 3 ng/kg/min): 0.3 L/min
Cardiac Output Percent CFB ([2]; infusion rate 3 ng/kg/min): 7.0%
Diastolic Blood Pressure CFB ([2]; infusion rate 3 ng/kg/min): −8.6 mm Hg
Diastolic Blood Pressure Percent CFB ([2]; infusion rate 3 ng/kg/min): −13.0%
Stroke Volume CFB ([2]; infusion rate 3 ng/kg/min): 4.8 mL
Stroke Volume Percent CFB ([2]; infusion rate 3 ng/kg/min): 7.3%
Systolic Blood Pressure CFB ([2]; infusion rate 3 ng/kg/min): −9.5 mm Hg
Systolic Blood Pressure Percent CFB ([2]; infusion rate 3 ng/kg/min): −9.2%
Heart Rate CFB ([2]; infusion rate 9 ng/kg/min): 0.2 bpm
Heart Rate Percent CFB ([2]; infusion rate 9 ng/kg/min): 1.5%
Cardiac Index CFB ([2]; infusion rate 9 ng/kg/min): 0.2 L/min/m^2
Cardiac Index Percent CFB ([2]; infusion rate 9 ng/kg/min): 9.1%
Cardiac Output CFB ([2]; infusion rate 9 ng/kg/min): 0.5 L/min
Cardiac Output Percent CFB ([2]; infusion rate 9 ng/kg/min): 9.2%
Diastolic Blood Pressure CFB ([2]; infusion rate 9 ng/kg/min): −8.6 mm Hg
Diastolic Blood Pressure Percent CFB ([2]; infusion rate 9 ng/kg/min): −11.9%
Stroke Volume CFB ([2]; infusion rate 9 ng/kg/min): 5.9 mL
Stroke Volume Percent CFB ([2]; infusion rate 9 ng/kg/min): 7.6%
Systolic Blood Pressure CFB ([2]; infusion rate 9 ng/kg/min): −10.6 mm Hg
Systolic Blood Pressure Percent CFB ([2]; infusion rate 9 ng/kg/min): −9.4%
Heart Rate CFB ([2]; infusion rate 18 ng/kg/min): 0.8 bpm
Heart Rate Percent CFB ([2]; infusion rate 18 ng/kg/min): 2.5%
Cardiac Index CFB ([2]; infusion rate 18 ng/kg/min): 0.4 L/min/m^2
Cardiac Index Percent CFB ([2]; infusion rate 18 ng/kg/min): 14.5%
Cardiac Output CFB ([2]; infusion rate 18 ng/kg/min): 0.8 L/min
Cardiac Output Percent CFB ([2]; infusion rate 18 ng/kg/min): 15.5%
Diastolic Blood Pressure CFB ([2]; infusion rate 18 ng/kg/min): −7.6 mm Hg
Diastolic Blood Pressure Percent CFB ([2]; infusion rate 18 ng/kg/min): −11.4%
Stroke Volume CFB ([2]; infusion rate 18 ng/kg/min): 9.3 mL
Stroke Volume Percent CFB ([2]; infusion rate 18 ng/kg/min): 12.9%
Systolic Blood Pressure CFB ([2]; infusion rate 18 ng/kg/min): −8.8 mm Hg
Systolic Blood Pressure Percent CFB ([2]; infusion rate 18 ng/kg/min): −8.7%
Heart Rate CFB ([2]; infusion rate 36 ng/kg/min): 3.6 bpm
Heart Rate Percent CFB ([2]; infusion rate 36 ng/kg/min): 6.3%
Cardiac Index CFB ([2]; infusion rate 36 ng/kg/min): 0.3 L/min/m^2
Cardiac Index Percent CFB ([2]; infusion rate 36 ng/kg/min): 12.4%
Cardiac Output CFB ([2]; infusion rate 36 ng/kg/min): 0.7 L/min
Cardiac Output Percent CFB ([2]; infusion rate 36 ng/kg/min): 12.4%
Diastolic Blood Pressure CFB ([2]; infusion rate 36 ng/kg/min): −12.5 mm Hg
Diastolic Blood Pressure Percent CFB ([2]; infusion rate 36 ng/kg/min): −18.5%
Stroke Volume CFB ([2]; infusion rate 36 ng/kg/min): 4.2 mL
Stroke Volume Percent CFB ([2]; infusion rate 36 ng/kg/min): 6.0%
Systolic Blood Pressure CFB ([2]; infusion rate 36 ng/kg/min): −16.4 mm Hg
Systolic Blood Pressure Percent CFB ([2]; infusion rate 36 ng/kg/min): −14.9%
Heart Rate CFB ([2]; infusion rate 45 ng/kg/min): 3.8 bpm
Heart Rate Percent CFB ([2]; infusion rate 45 ng/kg/min): 7.5%
Cardiac Index CFB ([2]; infusion rate 45 ng/kg/min): 0.3 L/min/m^2
Cardiac Index Percent CFB ([2]; infusion rate 45 ng/kg/min): 12.6%
Cardiac Output CFB ([2]; infusion rate 45 ng/kg/min): 0.7 L/min
Cardiac Output Percent CFB ([2]; infusion rate 45 ng/kg/min): 13.3%
Diastolic Blood Pressure CFB ([2]; infusion rate 45 ng/kg/min): −12.6 mm Hg
Diastolic Blood Pressure Percent CFB ([2]; infusion rate 45 ng/kg/min): −19.0%
Stroke Volume CFB ([2]; infusion rate 45 ng/kg/min): 3.3 mL
Stroke Volume Percent CFB ([2]; infusion rate 45 ng/kg/min): 5.4%
Systolic Blood Pressure CFB ([2]; infusion rate 45 ng/kg/min): −12.0 mm Hg
Systolic Blood Pressure Percent CFB ([2]; infusion rate 45 ng/kg/min): −11.7%
Heart Rate CFB ([2]; infusion rate 54 ng/kg/min): 7.0 bpm
Heart Rate Percent CFB ([2]; infusion rate 54 ng/kg/min): 11.5%
Cardiac Index CFB ([2]; infusion rate 54 ng/kg/min): 0.2 L/min/m^2
Cardiac Index Percent CFB ([2]; infusion rate 54 ng/kg/min): 7.5%
Cardiac Output CFB ([2]; infusion rate 54 ng/kg/min): 0.4 L/min
Cardiac Output Percent CFB ([2]; infusion rate 54 ng/kg/min): 11.5%
Diastolic Blood Pressure CFB ([2]; infusion rate 54 ng/kg/min): −14.4 mm Hg
Diastolic Blood Pressure Percent CFB ([2]; infusion rate 54 ng/kg/min): −23.9%
Stroke Volume CFB ([2]; infusion rate 54 ng/kg/min): -2.5 mL
Stroke Volume Percent CFB ([2]; infusion rate 54 ng/kg/min): 0.5%
Systolic Blood Pressure CFB ([2]; infusion rate 54 ng/kg/min): −18.8 mm Hg
Systolic Blood Pressure Percent CFB ([2]; infusion rate 54 ng/kg/min): −21.4%
